The numbers were not newly measured in patent US20240050377A1, “ORAL SOLID CANNABINOID OIL COMPOSITION FOR TREATING CENTRAL NERVOUS SYSTEM DISORDERS” (SOCIETE DES PRODUITS NESTLE S.A., priority 2021, published 2024), which cites them from elsewhere.

For series [1] the following is noted: humans.
For series [2] the following is noted: low pH of the stomach; simulated gastric fluid.

Where “and” joins values, the source holds several entries; their conditions need not be identical. Equal values may be shown once. Read-outs that look alike come from different tables or passages of the source.

In the case of `C=C(C)[C@@H]1CCC(C)=C[C@H]1c1c(O)cc(CCCCC)cc1O` [CBD, cannabidiol], the mean half-life in series [1] (aerosol administration) is 1.1 to 2.4 h; in series [1] (oral lipid capsule administration), 2.95 h and 3.21 h; in series [1] (single oral administration), 1.09 to 1.97 h. Besides, the “degradation in stomach environment” value in series [2] is “high levels of CBD degradation”.
